Earlier results, collected in publication PMC7904743, “WIDOCK: a reactive docking protocol for virtual screening of covalent inhibitors” (Journal of Computer-Aided Molecular Design, 2021).
Read-outs that look alike come from different tables or passages of the source.

Experiments:
OTUB2 = conditions: experimental actives if % labeling higher than 50%, cited from earlier work
NUDT7 = conditions: protein labeling at 200 μM; experimental actives if % labeling higher than 50%; cited from earlier work
[1] = thiol reactivity, cited from earlier work
[2] = natural log of average rate constant k
[3] = natural logarithm of average rate constant
[4] = natural log of average kinetic rate constant
[5] = natural log of average rate constant

| SMILES | OTUB2 % labeling (OTUB2) [%] | NUDT7 % labeling (NUDT7) [%] | ln(avg k) [1, 2] | ln(avg k) [1, 3] | OTUB2 % labeling (OTUB2; OTUB2 protein labeling) [%] | ln(avg k) [1, 4] | ln(avg k) [1, 5] |
| --- | --- | --- | --- | --- | --- | --- | --- |
| NC(=O)C1CCN(C(=O)CCl)CC1 [PCM-0102584, NC(=O)C1CCN(C(=O)CCl)CC1] | 0 | 0 | -15.701 | -15.701 |  |  |  |
| Cc1sc(NC(=O)CCl)c(C)c1C [PCM-0102968, Cc1sc(NC(=O)CCl)c(C)c1C] |  | 0 |  |  | 0 | -16.020 | -16.020 |
| NC(=O)C1CCCN(C(=O)CCl)C1 (stereo not drawn) [PCM-0102495, NC(=O)C1CCCN(C(=O)CCl)C1] | 0 | 0 | -15.454 | -15.454 |  |  |  |
| O=C(CCl)Nc1ccc(F)cc1F [PCM-0103004, O=C(CCl)Nc1ccc(F)cc1F] |  | 0 |  |  | 26 | -15.968 | -15.968 |
| CC(c1nc2ccccc2s1)N(C)C(=O)CCl (stereo not drawn) [PCM-0102793, CC(c1nc2ccccc2s1)N(C)C(=O)CCl] |  | 0 |  |  | 19 | -15.755 | -15.755 |
| O=C(CCl)N1CCN(S(=O)(=O)c2ccccc2Cl)CC1 [PCM-0102837, O=C(CCl)N1CCN(S(=O)(=O)c2ccccc2Cl)CC1] |  | 18 |  |  | 0 | -15.224 | -15.224 |
| CC1Cc2cc(S(N)(=O)=O)ccc2N1C(=O)CCl (stereo not drawn) [PCM-0102207, CC1Cc2cc(S(N)(=O)=O)ccc2N1C(=O)CCl] | 0 | 7 | -15.427 | -15.427 |  |  |  |
| O=C(CCl)NCc1cccc(Cl)c1 [PCM-0102174, O=C(CCl)NCc1cccc(Cl)c1] | 25 | 0 | -16.752 | -16.752 |  |  |  |
| Cc1ccc(-n2nc(C)cc2NC(=O)CCl)cc1 [PCM-0102224, Cc1ccc(-n2nc(C)cc2NC(=O)CCl)cc1] | 35 | 0 | -16.116 | -16.116 |  |  |  |
| O=C(CCl)N1CCCC1c1cccs1 (stereo not drawn) [PCM-0102393, O=C(CCl)N1CCCC1c1cccs1] | 0 | 36 | -15.246 | -15.246 |  |  |  |
| Cc1nn(C)c(C)c1NC(=O)CCl [PCM-0102949, Cc1nn(C)c(C)c1NC(=O)CCl] |  | 0 |  |  | 0 | -16.344 | -16.344 |
| CCc1cccc(C)c1NC(=O)CCl [PCM-0102618, CCc1cccc(C)c1NC(=O)CCl] | 0 | 11 | -17.017 | -17.017 |  |  |  |
| CC(c1ccc(F)c(F)c1)N(C)C(=O)CCl (stereo not drawn) [PCM-0102438, CC(c1ccc(F)c(F)c1)N(C)C(=O)CCl] | 8 | 14 | -16.135 | -16.135 |  |  |  |
| O=C(CCl)Nc1ccc(Cl)nc1 [PCM-0102891, O=C(CCl)Nc1ccc(Cl)nc1] |  | 25 |  |  | 0 | -15.610 | -15.610 |
| COc1cccc(C2CCCN2C(=O)CCl)c1 (stereo not drawn) [PCM-0102716, COc1cccc(C2CCCN2C(=O)CCl)c1] | 9 | 68 |  | -15.631 |  |  | -15.631 |
| COCC(=O)NC(=O)CCl [PCM-0102904, COCC(=O)NC(=O)CCl] |  | 0 |  |  | 0 | -18.669 | -18.669 |
| O=C(CCl)N1N=C(c2ccco2)CC1c1ccsc1 (stereo not drawn) [PCM-0102659, O=C(CCl)N1N=C(c2ccco2)CC1c1ccsc1] | 0 | 39 | -14.828 | -14.828 |  |  |  |
| CC(C#N)(NC(=O)CCl)C1CC1 (stereo not drawn) [PCM-0102664, CC(C#N)(NC(=O)CCl)C1CC1] | 0 | 0 | -16.170 | -16.170 |  |  |  |
| Cc1ccccc1C(=O)NC1CCN(C(=O)CCl)CC1 [PCM-0103013, Cc1ccccc1C(=O)NC1CCN(C(=O)CCl)CC1] |  | 0 |  |  | 0 | -15.378 | -15.378 |
| O=C(CCl)N1CCC(C(=O)N2CCCCC2)CC1 [PCM-0102972, O=C(CCl)N1CCC(C(=O)N2CCCCC2)CC1] |  | 0 |  |  | 8 | -15.512 | -15.512 |
| O=C(NC1CCN(C(=O)CCl)CC1)c1ccccc1 [PCM-0102575, O=C(NC1CCN(C(=O)CCl)CC1)c1ccccc1] | 9 | 9 | -15.398 | -15.398 |  |  |  |
